Test results from patent US8426649B2, “Cyclopropenones and the photochemical generation of cyclic alkynes therefrom” (University of Georgia Research Foundation, Inc., priority 2009, dated 2013).

How the values were obtained:
[1] = Rate measurements of cycloaddition of acetylenes with azides by UV spectroscopy in methanol; type: physicochemical; details: 25±0.1° C.
Protocol: The rate measurements of cycloaddition of acetylenes 6c and 4a were conducted by UV spectroscopy at 25±0.1° C. A calculated amount of 0.25 M solutions of an azide required to achieve desired azide concentration (6×10^−4-1.5×10^−2 M) was added to a thermally equilibrated ca. 6×10^−5 M solution of acetylene in MeOH. Reactions were monitored by following the decay of the characteristic absorbance of acetylenes ca. 317 nm (FIG. 6). Consumption of starting material followed a first order equation well and the pseudo-first order rate constants were obtained by the by least-squares fitting of the data to a single exponential equation. The dependence of the observed rates on the concentration of azides was linear.
The rate measurements of the cycloaddition reaction of acetylene 6c with azides was conducted by UV spectroscopy following the decay of the 317 nm band of 6c (as shown in FIG. 6) in the photolysate at various concentrations of azides from about 0.5 mM to about 20 mM). […]
Rate measurements were performed using Carry-300 Bio UV-Vis spectrometer equipped with a thermostatable cell holder. […] A calculated amount of 0.25 M solutions of an azide required to achieve desired azide concentration (6×10^−4−1.5×10^−2M) was added at once. Reactions were monitored by following the decay of the characteristic absorbance of acetylene 6c at approximately 317 nm (FIG. 6). […]

[2] = Stability of cyclopropenones (shelf life, elevated temperature, solution); type: physicochemical; details: 3 days at 40° C. in aqueous and methanol solutions
Excerpt: Diphenyl cyclopropenones, such as 5a-c, 18a-c, and 19, had long shelf lives, and could withstand elevated temperatures. […] (Poloukhtine & Popik (2003) J. Org. Chem. 68: 7833-7840). The cyclopropenones are also stable in solution in the absence of light.

Row | Molecule | Bimolecular rate constant, Rate ([1]; 1-phenyl-2-azidopropane) | Bimolecular rate constant, Rate ([1]; n-butyl azide) | Decomposition in solution in the absence of light [2]
1 | 3,9-Dibutoxy-5,6-didehydro-11,12-dihydrodibenzo[a,e][8]annulen-2-yl [6c] | 0.0343 M⁻¹ s⁻¹ | 0.0586 M⁻¹ s⁻¹ | –
2 | CCCCOc1ccc2c(c1)CCc1cc(OCCCC)ccc1-c1c-2c1=O [5c, 4,9-dibutoxy-6,7-dihydro-1H-dibenzo[a,e]cyclopropa[c][8]annulen-1-one] | – | – | no decomposition
